Test results as given in ChEMBL document CHEMBL1909046, “DrugMatrix in vitro pharmacology data”.

Assays:
[1] = molecular target: Beta-1 adrenergic receptor (Homo sapiens, UniProt P08588); experiment: DRUGMATRIX: Adrenergic beta1 radioligand binding (ligand: [125I] Cyanopindolol); assay type: cell membranes, CHO-K1, Membrane; conditions: cho-k1; Not Active = under 50% inhibition at 10 µM
Substance-P receptor = Substance-P receptor (Homo sapiens, UniProt P25103); assay type: cell membranes, CHO, Membrane; conditions: cho; note: in other assays of this panel Not Active means under 50% inhibition at 10 µM
Cannabinoid receptor 1 = Cannabinoid receptor 1 (Homo sapiens, UniProt P21554); assay type: cell membranes, Membrane; conditions: chem-1; note: in other assays of this panel Not Active means under 50% inhibition at 10 µM
[2] = molecular target: T1, C-C chemokine receptor type 4 (Homo sapiens, UniProt P51679); assay type: cell membranes, Chem-1, Membrane; conditions: chem-1; note: in other assays of this panel Not Active means under 50% inhibition at 10 µM
T1 sequence (P51679 whole entry): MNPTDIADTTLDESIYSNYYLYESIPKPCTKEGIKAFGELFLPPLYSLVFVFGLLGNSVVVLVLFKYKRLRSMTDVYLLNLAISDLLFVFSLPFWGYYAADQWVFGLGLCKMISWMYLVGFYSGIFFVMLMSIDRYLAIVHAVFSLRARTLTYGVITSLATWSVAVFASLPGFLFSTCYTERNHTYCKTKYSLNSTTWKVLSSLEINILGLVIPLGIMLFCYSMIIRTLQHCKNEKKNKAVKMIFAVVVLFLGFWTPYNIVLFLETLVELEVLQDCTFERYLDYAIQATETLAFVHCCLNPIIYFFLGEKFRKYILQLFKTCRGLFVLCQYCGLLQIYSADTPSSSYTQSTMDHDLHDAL

[3] = molecular target: T2, Muscarinic acetylcholine receptor M2 (Homo sapiens, UniProt P08172); assay type: cell membranes, CHO-K1, Membrane; conditions: cho-k1; note: in other assays of this panel Not Active means under 50% inhibition at 10 µM
T2 sequence (P08172 whole entry): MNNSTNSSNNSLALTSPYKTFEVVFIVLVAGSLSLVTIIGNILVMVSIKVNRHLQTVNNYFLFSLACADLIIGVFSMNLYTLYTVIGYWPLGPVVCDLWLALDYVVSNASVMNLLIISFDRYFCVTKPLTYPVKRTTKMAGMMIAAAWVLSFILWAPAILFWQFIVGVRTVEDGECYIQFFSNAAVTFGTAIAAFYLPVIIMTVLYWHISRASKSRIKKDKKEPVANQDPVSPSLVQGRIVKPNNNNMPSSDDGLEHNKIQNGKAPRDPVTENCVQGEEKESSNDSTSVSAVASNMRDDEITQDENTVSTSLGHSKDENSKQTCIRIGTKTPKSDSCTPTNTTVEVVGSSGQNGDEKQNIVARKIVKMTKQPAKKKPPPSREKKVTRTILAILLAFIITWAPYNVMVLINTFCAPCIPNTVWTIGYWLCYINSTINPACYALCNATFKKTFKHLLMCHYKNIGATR

[4] = DRUGMATRIX: Nicotinic Acetylcholine radioligand binding (ligand: [125I] Epibatidine); assay type: cell membranes, Membrane; conditions: imr-32; Not Active = under 50% inhibition at 10 µM
Cytochrome P450 2C19 = Cytochrome P450 2C19 (Homo sapiens, UniProt P33261); conditions: bti-tn-5b1-4; note: in other assays of this panel Not Active means under 50% inhibition at 10 µM
Cytochrome P450 2D6 = Cytochrome P450 2D6 (Homo sapiens, UniProt P10635); conditions: bti-tn-5b1-4; note: in other assays of this panel Not Active means under 50% inhibition at 10 µM
Sequence of Cytochrome P450 2D6 (P10635 whole entry): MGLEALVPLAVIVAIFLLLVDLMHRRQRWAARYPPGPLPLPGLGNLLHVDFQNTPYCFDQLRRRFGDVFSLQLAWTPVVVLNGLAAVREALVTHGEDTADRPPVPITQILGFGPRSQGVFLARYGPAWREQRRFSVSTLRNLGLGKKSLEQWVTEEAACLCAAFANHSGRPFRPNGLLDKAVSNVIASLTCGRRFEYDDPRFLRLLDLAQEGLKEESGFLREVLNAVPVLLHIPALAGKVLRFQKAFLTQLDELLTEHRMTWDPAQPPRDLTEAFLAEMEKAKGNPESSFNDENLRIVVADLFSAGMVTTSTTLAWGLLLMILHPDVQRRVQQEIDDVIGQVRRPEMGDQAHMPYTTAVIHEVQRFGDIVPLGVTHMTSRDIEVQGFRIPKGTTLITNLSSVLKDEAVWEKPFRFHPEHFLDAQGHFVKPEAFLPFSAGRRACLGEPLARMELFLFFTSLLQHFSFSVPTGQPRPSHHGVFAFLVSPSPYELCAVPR

Sequence of Cannabinoid receptor 1 (P21554 whole entry): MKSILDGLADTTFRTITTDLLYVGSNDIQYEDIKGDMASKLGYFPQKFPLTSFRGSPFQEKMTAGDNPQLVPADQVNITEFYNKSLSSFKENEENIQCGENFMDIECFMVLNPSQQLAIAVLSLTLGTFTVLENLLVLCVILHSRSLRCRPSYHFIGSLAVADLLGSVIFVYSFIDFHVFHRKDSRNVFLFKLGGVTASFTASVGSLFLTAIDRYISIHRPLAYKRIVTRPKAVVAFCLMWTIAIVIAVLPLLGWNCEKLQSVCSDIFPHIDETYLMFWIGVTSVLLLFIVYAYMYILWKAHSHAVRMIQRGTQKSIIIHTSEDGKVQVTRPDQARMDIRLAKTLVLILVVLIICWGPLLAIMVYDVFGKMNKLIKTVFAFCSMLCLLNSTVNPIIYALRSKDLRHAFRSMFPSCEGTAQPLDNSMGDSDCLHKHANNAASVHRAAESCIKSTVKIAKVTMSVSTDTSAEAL
Sequence of Beta-1 adrenergic receptor (P08588 whole entry): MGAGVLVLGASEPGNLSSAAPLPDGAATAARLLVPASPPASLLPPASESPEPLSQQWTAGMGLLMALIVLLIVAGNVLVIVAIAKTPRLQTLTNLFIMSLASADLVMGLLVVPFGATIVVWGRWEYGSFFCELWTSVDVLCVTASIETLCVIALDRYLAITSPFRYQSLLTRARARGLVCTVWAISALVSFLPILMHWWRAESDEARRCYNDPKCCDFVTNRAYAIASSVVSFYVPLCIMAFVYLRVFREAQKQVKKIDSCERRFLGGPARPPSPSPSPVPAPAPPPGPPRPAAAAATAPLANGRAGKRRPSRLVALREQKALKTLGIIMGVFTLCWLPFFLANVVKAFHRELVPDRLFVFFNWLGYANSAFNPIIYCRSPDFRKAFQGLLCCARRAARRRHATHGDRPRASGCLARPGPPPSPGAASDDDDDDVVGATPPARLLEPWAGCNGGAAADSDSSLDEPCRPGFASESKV
Sequence of Substance-P receptor (P25103 whole entry): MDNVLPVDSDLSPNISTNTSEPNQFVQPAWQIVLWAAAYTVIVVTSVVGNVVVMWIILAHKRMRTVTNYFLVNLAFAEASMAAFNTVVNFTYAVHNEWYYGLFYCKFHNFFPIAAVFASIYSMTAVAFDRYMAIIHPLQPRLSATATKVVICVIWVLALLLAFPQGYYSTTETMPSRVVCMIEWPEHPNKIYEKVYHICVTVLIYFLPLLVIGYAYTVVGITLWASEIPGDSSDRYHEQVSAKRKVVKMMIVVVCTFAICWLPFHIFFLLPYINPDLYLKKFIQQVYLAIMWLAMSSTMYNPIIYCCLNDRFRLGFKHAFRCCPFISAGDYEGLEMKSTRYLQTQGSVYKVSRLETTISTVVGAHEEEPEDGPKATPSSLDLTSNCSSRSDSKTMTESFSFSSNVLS
Sequence of Cytochrome P450 2C19 (P33261 whole entry): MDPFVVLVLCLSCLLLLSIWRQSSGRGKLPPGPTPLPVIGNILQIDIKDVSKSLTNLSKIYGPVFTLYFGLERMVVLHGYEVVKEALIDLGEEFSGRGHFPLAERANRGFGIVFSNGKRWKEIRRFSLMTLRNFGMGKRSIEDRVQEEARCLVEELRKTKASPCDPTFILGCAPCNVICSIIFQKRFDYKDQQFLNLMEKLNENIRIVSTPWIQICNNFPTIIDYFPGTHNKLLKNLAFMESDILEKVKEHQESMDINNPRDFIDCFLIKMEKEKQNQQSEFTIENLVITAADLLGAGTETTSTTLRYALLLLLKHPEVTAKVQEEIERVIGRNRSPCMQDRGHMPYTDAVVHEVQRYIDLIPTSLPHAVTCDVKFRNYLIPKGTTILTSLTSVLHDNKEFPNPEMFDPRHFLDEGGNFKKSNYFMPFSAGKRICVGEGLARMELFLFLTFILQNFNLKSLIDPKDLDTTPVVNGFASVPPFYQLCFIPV

OC(Cn1cncn1)(Cn1cncn1)c1ccc(F)cc1F [FLUCONAZOLE]
Not Active: IC50 [1] | IC50 (Substance-P receptor) | IC50 (Cannabinoid receptor 1) | IC50 [2] | IC50 [3] | IC50 [4] | Ki [4] | IC50 (Cytochrome P450 2C19) | Ki (Cytochrome P450 2C19) | IC50 (Cytochrome P450 2D6) | Ki (Cytochrome P450 2D6)

C[C@]12CCC(=O)C=C1CC[C@@H]1[C@@H]2CC[C@@]2(C)[C@H]1CC[C@]2(C)O [METHYLTESTOSTERONE]
Not Active: IC50 [1] | IC50 (Substance-P receptor) | IC50 (Cannabinoid receptor 1) | IC50 [2] | IC50 [3] | IC50 [4] | Ki [4] | IC50 (Cytochrome P450 2C19) | Ki (Cytochrome P450 2C19) | IC50 (Cytochrome P450 2D6) | Ki (Cytochrome P450 2D6)

O=c1oc2ccccc2c(O)c1Cc1c(O)c2ccccc2oc1=O [DICUMAROL]
Not Active: IC50 [1] | IC50 (Substance-P receptor) | IC50 (Cannabinoid receptor 1) | IC50 [2] | IC50 [3] | IC50 [4] | Ki [4] | IC50 (Cytochrome P450 2C19) | Ki (Cytochrome P450 2C19) | IC50 (Cytochrome P450 2D6) | Ki (Cytochrome P450 2D6)

Cc1cc(C2CCCCC2)n(O)c(=O)c1 [CICLOPIROX]
Not Active: IC50 [1] | IC50 (Substance-P receptor) | IC50 (Cannabinoid receptor 1) | IC50 [2] | IC50 [3] | IC50 [4] | Ki [4] | IC50 (Cytochrome P450 2C19) | Ki (Cytochrome P450 2C19) | IC50 (Cytochrome P450 2D6) | Ki (Cytochrome P450 2D6)

NC1=NC(=O)C(c2ccccc2)O1 (configuration not stated) [PEMOLINE]
Not Active: IC50 [1] | IC50 (Substance-P receptor) | IC50 (Cannabinoid receptor 1) | IC50 [2] | IC50 [3] | IC50 [4] | Ki [4] | IC50 (Cytochrome P450 2C19) | Ki (Cytochrome P450 2C19) | IC50 (Cytochrome P450 2D6) | Ki (Cytochrome P450 2D6)

CC(C)C(Br)C(=O)NC(N)=O (configuration not stated) [BROMISOVALUM]
Not Active: IC50 [1] | IC50 (Substance-P receptor) | IC50 (Cannabinoid receptor 1) | IC50 [2] | IC50 [3] | IC50 [4] | Ki [4] | IC50 (Cytochrome P450 2C19) | Ki (Cytochrome P450 2C19) | IC50 (Cytochrome P450 2D6) | Ki (Cytochrome P450 2D6)

C[C@H]1c2cccc(O)c2C(=O)C2=C(O)[C@]3(O)C(=O)C(C(N)=O)=C(O)[C@@H](N(C)C)[C@@H]3[C@@H](O)[C@@H]21.O [DOXYCYCLINE]
Not Active: IC50 [1] | IC50 (Substance-P receptor) | IC50 (Cannabinoid receptor 1) | IC50 [2] | IC50 [3] | IC50 [4] | Ki [4] | IC50 (Cytochrome P450 2C19) | Ki (Cytochrome P450 2C19) | IC50 (Cytochrome P450 2D6) | Ki (Cytochrome P450 2D6)

C[C@H](CS)C(=O)N1CCC[C@H]1C(=O)O [CAPTOPRIL]
Not Active: IC50 [1] | IC50 (Substance-P receptor) | IC50 (Cannabinoid receptor 1) | IC50 [2] | IC50 [3] | IC50 [4] | Ki [4] | IC50 (Cytochrome P450 2C19) | Ki (Cytochrome P450 2C19) | IC50 (Cytochrome P450 2D6) | Ki (Cytochrome P450 2D6)

CC(O)CO (configuration not stated) [PROPYLENE GLYCOL]
Not Active: IC50 [1] | IC50 (Substance-P receptor) | IC50 (Cannabinoid receptor 1) | IC50 [2] | IC50 [3] | IC50 [4] | Ki [4] | IC50 (Cytochrome P450 2C19) | Ki (Cytochrome P450 2C19) | IC50 (Cytochrome P450 2D6) | Ki (Cytochrome P450 2D6)

Cc1c(O)c(=O)ccn1C [DEFERIPRONE]
Not Active: IC50 [1] | IC50 (Substance-P receptor) | IC50 (Cannabinoid receptor 1) | IC50 [2] | IC50 [3] | IC50 [4] | Ki [4] | IC50 (Cytochrome P450 2C19) | Ki (Cytochrome P450 2C19) | IC50 (Cytochrome P450 2D6) | Ki (Cytochrome P450 2D6)

c1ccc2c(c1)c1cccc3ccc4cccc2c4c31 [BENZO[E]PYRENE]
Not Active: IC50 [1] | IC50 (Substance-P receptor) | IC50 (Cannabinoid receptor 1) | IC50 [2] | IC50 [3] | IC50 [4] | Ki [4] | IC50 (Cytochrome P450 2C19) | Ki (Cytochrome P450 2C19) | IC50 (Cytochrome P450 2D6) | Ki (Cytochrome P450 2D6)

Cc1ccccc1N1C(=O)c2cc(S(N)(=O)=O)c(Cl)cc2NC1C (configuration not stated) [METOLAZONE]
Not Active: IC50 [1] | IC50 (Substance-P receptor) | IC50 (Cannabinoid receptor 1) | IC50 [2] | IC50 [3] | IC50 [4] | Ki [4] | IC50 (Cytochrome P450 2C19) | Ki (Cytochrome P450 2C19) | IC50 (Cytochrome P450 2D6) | Ki (Cytochrome P450 2D6)

O=C1CC[C@@H](N2C(=O)c3ccccc3C2=O)C(=O)N1
Not Active: IC50 [1] | IC50 (Substance-P receptor) | IC50 (Cannabinoid receptor 1) | IC50 [2] | IC50 [3] | IC50 [4] | Ki [4] | IC50 (Cytochrome P450 2C19) | Ki (Cytochrome P450 2C19) | IC50 (Cytochrome P450 2D6) | Ki (Cytochrome P450 2D6)

Nc1nc2c(ncn2COCCO)c(=O)[nH]1 [ACYCLOVIR]
Not Active: IC50 [1] | IC50 (Substance-P receptor) | IC50 (Cannabinoid receptor 1) | IC50 [2] | IC50 [3] | IC50 [4] | Ki [4] | IC50 (Cytochrome P450 2C19) | Ki (Cytochrome P450 2C19) | IC50 (Cytochrome P450 2D6) | Ki (Cytochrome P450 2D6)

CC1(C)O[C@@H]2C[C@H]3[C@@H]4CCC5=CC(=O)CC[C@]5(C)[C@@]4(F)[C@@H](O)C[C@]3(C)[C@]2(C(=O)CCl)O1 [HALCINONIDE]
Not Active: IC50 [1] | IC50 (Substance-P receptor) | IC50 (Cannabinoid receptor 1) | IC50 [2] | IC50 [3] | IC50 [4] | Ki [4] | IC50 (Cytochrome P450 2C19) | Ki (Cytochrome P450 2C19) | IC50 (Cytochrome P450 2D6) | Ki (Cytochrome P450 2D6)

CC1CC(OC(=O)C(O)c2ccccc2)CC(C)(C)C1 (configuration not stated) [CYCLANDELATE]
Not Active: IC50 [1] | IC50 (Substance-P receptor) | IC50 (Cannabinoid receptor 1) | IC50 [2] | IC50 [3] | IC50 [4] | Ki [4] | IC50 (Cytochrome P450 2C19) | Ki (Cytochrome P450 2C19) | IC50 (Cytochrome P450 2D6) | Ki (Cytochrome P450 2D6)

LEAD (II) ACETATE
Not Active: IC50 [1] | Ki [1] | IC50 (Substance-P receptor) | Ki (Substance-P receptor) | IC50 (Cannabinoid receptor 1) | Ki (Cannabinoid receptor 1) | IC50 [2] | Ki [2] | IC50 [3] | Ki [3] | IC50 [4] | Ki [4] | IC50 (Cytochrome P450 2C19) | Ki (Cytochrome P450 2C19) | IC50 (Cytochrome P450 2D6) | Ki (Cytochrome P450 2D6)

Sc1ncnc2nc[nH]c12 [MERCAPTOPURINE ANHYDROUS]
Not Active: IC50 [1] | IC50 (Substance-P receptor) | IC50 (Cannabinoid receptor 1) | IC50 [2] | IC50 [3] | IC50 [4] | Ki [4] | IC50 (Cytochrome P450 2C19) | Ki (Cytochrome P450 2C19) | IC50 (Cytochrome P450 2D6) | Ki (Cytochrome P450 2D6)

O=c1[nH]c(=O)n([C@H]2C[C@H](O)[C@@H](CO)O2)cc1I [IDOXURIDINE]
Not Active: IC50 [1] | IC50 (Substance-P receptor) | IC50 (Cannabinoid receptor 1) | IC50 [2] | IC50 [3] | IC50 [4] | Ki [4] | IC50 (Cytochrome P450 2C19) | Ki (Cytochrome P450 2C19) | IC50 (Cytochrome P450 2D6) | Ki (Cytochrome P450 2D6)

CC1=C2C(=CO[C@H](C)[C@H]2C)C(O)=C(C(=O)O)C1=O [CITRININ]
Not Active: IC50 [1] | IC50 (Substance-P receptor) | IC50 (Cannabinoid receptor 1) | IC50 [2] | IC50 [3] | IC50 [4] | Ki [4] | IC50 (Cytochrome P450 2C19) | Ki (Cytochrome P450 2C19) | IC50 (Cytochrome P450 2D6) | Ki (Cytochrome P450 2D6)

Cc1c(C)c2c(c(C)c1O)CC[C@@](C)(CCC[C@H](C)CCC[C@H](C)CCCC(C)C)O2 [ALPHA-TOCOPHEROL]
Not Active: IC50 [1] | IC50 (Substance-P receptor) | IC50 (Cannabinoid receptor 1) | IC50 [2] | IC50 [3] | IC50 [4] | Ki [4] | IC50 (Cytochrome P450 2C19) | Ki (Cytochrome P450 2C19) | IC50 (Cytochrome P450 2D6) | Ki (Cytochrome P450 2D6)

O=C(O)CCCc1ccc(N(CCCl)CCCl)cc1 [CHLORAMBUCIL]
Not Active: IC50 [1] | IC50 (Substance-P receptor) | IC50 (Cannabinoid receptor 1) | IC50 [2] | IC50 [3] | IC50 [4] | Ki [4] | IC50 (Cytochrome P450 2C19) | Ki (Cytochrome P450 2C19) | IC50 (Cytochrome P450 2D6) | Ki (Cytochrome P450 2D6)
